{
  "source": "paper PMC5218480",
  "about": "(PLoS ONE, 2017)",
  "key": {"HL-60 cells": {"test_system": "HL-60 cells", "assay": "Cell viability assay (CellTiter-Glo)", "conditions": "read-out: IC50 cell viability HL-60; 72 hours", "method": "(§3) MV-4-11, Kasumi-1, and HL-60 AML cell lines were all obtained from ATCC. MOLM-13 and NB-4 cell lines were obtained from DSMZ. […] The identity of each cell line was validated and documented by the suppliers. All experiments were performed with cells maintained at low passage numbers.\n(§4) Compounds and/or solvent dimethyl sulfoxide (DMSO) were added at the same time using an HP D300 digital dispenser (Hewlett Packard) in triplicate or quadruplicate and incubated for 72 hours at 37°C. Viability was measured by adding 25 μL CellTiter-Glo (Promega), incubating for 10 minutes, and measuring luminescence on a SpectraMax (Molecular Devices). […] CI < 1 indicates synergism, CI = 1 indicates additivity, and CI > 1 indicates antagonism."}, "[1]": {"test_system": "live leukemic cells of fresh bone marrow samples from AML patients", "conditions": "read-out: mean IC50, proliferation of primary leukemic cells; 96 hours, n = 38 patient samples"}, "HDAC1": {"molecular_target": "T1, HDAC1 (Homo sapiens, UniProt Q13547)", "T1 construct": "purchased BPS Biosciences", "T1 sequence (Q13547 whole entry)": "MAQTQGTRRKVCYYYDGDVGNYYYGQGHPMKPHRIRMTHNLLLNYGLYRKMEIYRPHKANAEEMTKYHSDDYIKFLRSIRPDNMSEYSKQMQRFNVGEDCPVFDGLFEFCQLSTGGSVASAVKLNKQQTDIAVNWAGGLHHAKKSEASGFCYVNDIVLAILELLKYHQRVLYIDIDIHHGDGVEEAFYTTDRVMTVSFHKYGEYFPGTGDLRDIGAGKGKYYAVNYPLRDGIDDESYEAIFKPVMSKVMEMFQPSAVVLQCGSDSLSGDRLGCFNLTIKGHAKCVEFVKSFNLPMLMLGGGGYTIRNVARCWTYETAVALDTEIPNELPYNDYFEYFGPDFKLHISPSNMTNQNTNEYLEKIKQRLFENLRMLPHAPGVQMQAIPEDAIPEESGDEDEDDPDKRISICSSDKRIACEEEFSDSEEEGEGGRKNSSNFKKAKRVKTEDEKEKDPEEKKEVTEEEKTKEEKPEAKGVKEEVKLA", "assay": "HDAC enzyme assay, in vitro biochemical", "procedure": "(§1) In vitro biochemical assays were performed as described previously. Specifically, compounds were dissolved and diluted in assay buffer (50 mM HEPES, pH 7.4, 100 mM KCl, 0.001% Tween-20, 0.05% BSA, and 20 μM Tris (2-carboxyethyl) phosphine) to 6-fold the final concentration. […] The amount of substrate (acetyl-lysine tripeptide) used for each enzyme was equal to the Michaelis constant (Km), as determined by a titration curve. Substrate was diluted in assay buffer to 6-fold of the final concentration with 0.3 μM sequencing grade trypsin (Sigma-Aldrich). The substrate/trypsin mix was added to the enzyme/compound mix and the plate was shaken for 5 seconds and then placed into a SpectraMax M5 microtiter (Molecular Devices) plate reader. The enzymatic reaction was monitored over 30 minutes for release of […] after deacetylation of the lysine side chain in the peptide substrate, and the linear rate of the reaction was calculated."}, "HDAC3": {"molecular_target": "T2, HDAC3 (Homo sapiens, UniProt O15379)", "T2 construct": "purchased BPS Biosciences", "T2 sequence (O15379 whole entry)": "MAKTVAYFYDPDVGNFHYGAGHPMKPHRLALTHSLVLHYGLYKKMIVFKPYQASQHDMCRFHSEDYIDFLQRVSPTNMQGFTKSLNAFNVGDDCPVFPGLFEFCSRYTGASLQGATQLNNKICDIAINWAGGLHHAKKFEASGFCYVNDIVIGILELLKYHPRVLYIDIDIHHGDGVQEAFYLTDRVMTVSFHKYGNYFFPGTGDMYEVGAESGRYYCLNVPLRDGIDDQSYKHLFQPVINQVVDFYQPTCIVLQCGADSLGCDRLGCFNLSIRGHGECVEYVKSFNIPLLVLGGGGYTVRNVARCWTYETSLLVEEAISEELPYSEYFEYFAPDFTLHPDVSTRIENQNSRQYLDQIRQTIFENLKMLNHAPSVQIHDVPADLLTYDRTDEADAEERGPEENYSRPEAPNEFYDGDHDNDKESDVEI", "T2 sequence (Q9Y618 395-489 partner limits assumed)": "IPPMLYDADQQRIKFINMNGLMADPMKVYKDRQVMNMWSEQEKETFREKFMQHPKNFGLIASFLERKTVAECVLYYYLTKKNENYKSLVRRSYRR", "assay": "HDAC enzyme assay, in vitro biochemical", "conditions": "pre-incubated 24 hours at 4°C; n = 3; read-out: IC50 against HDAC3", "procedure": "as §1"}, "HDAC2": {"molecular_target": "T3, HDAC2 (Homo sapiens, UniProt Q92769)", "T3 construct": "purchased BPS Biosciences", "T3 sequence (Q92769 whole entry)": "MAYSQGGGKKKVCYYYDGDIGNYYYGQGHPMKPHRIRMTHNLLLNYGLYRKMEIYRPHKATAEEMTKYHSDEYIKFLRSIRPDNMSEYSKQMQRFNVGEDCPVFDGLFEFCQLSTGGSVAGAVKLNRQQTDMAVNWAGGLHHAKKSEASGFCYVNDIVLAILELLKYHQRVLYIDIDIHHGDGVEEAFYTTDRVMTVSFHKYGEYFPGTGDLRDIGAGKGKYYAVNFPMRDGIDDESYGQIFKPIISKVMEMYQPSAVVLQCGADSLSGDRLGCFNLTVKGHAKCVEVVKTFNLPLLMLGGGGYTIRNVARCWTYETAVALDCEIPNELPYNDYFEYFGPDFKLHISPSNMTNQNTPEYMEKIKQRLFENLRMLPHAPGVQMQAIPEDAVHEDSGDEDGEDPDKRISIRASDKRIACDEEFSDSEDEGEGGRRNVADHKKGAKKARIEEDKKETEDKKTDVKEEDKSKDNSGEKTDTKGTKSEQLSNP", "assay": "HDAC enzyme assay, in vitro biochemical", "procedure": "as §1"}, "MV-4-11 cells": {"test_system": "MV-4-11 cells", "assay": "Cell viability assay (CellTiter-Glo), single agent and combination", "conditions": "read-out: IC50 cell viability MV-4-11; 72 hours", "method": "as §3, §4"}, "MV-4-11 and HL-60 cells [2]": {"test_system": "MV-4-11 and HL-60 cells", "assay": "Flow cytometry, cell cycle (EdU, S phase)", "type": "cell-based, human", "conditions": "single agent, 72 hours", "procedure": "(§2) All compounds and/or solvent DMSO were added concurrently at the indicated doses. Flow cytometry was performed to measure surface level of CD11b, cell cycle distribution, and induction of apoptosis. CD11b and apoptosis were analyzed on a FC500 flow cytometer ([…]) and cell cycle profiled on an Attune NxT (Life Technologies).\nEdU labeled cells were then mixed with FxCycle Far Red Stain (Life Technologies) and 100 μg RNase A cocktail (Life technologies) for 30 minutes before flow cytometry analysis. Edu positive populations representing S phase cells were quantified."}, "MV-4-11 and HL-60 cells [3]": {"test_system": "MV-4-11 and HL-60 cells", "assay": "Quantitative real time PCR (qPCR) of CDKN1A, CDKN1C, GATA2, HES1", "type": "cell-based, human", "conditions": "MV-4-11 and HL-60, 48 hours", "procedure": "RNA isolations were performed on a Qiacube (Qiagen) using the RNeasy Micro Kit (Qiagen) according to manufacturer’s protocol. RNA was converted to cDNA using the High Capacity RNA-to-cDNA Kit (Life Technologies) and qPCR performed using the Taqman Gene Expression Max Mix according to manufacturer’s protocol (Applied Bioscience). The following ThermoFisher taqman probes were used: GATA2 (Hs01060665_g1), GAPDH (Hs0275899_g1), ACTB (Hs00231119_m1), CDKN1A (Hs00355782_m1), CDKN1C (Hs00175938_m1), HES1 (Hs00172878_m1)."}, "Kasumi-1 cells": {"test_system": "Kasumi-1 cells", "assay": "Cell viability assay (CellTiter-Glo)", "conditions": "read-out: IC50 cell viability Kasumi-1; 72 hours", "method": "as §3, §4"}, "MV-4-11 and HL-60 cells [4]": {"test_system": "MV-4-11 and HL-60 cells", "assay": "Flow cytometry, apoptosis (Annexin V)", "type": "cell-based, human", "conditions": "single agent, 96 hours", "procedure": "as §2\nAnnexin V-positive populations were quantified."}, "MOLM-13 cells": {"test_system": "MOLM-13 cells", "assay": "Cell viability assay (CellTiter-Glo), single agent and combination", "conditions": "read-out: IC50 cell viability MOLM-13; 72 hours", "method": "as §3, §4"}, "[5]": {"test_system": "MV-4-11, Kasumi-1 and HL-60 cell lines", "assay": "Histone acetylation by immunoblotting", "type": "cell-based, human", "conditions": "24 hours, increasing doses", "excerpt": "The EpiQuick Total Histone Extraction kit (Epigentek) was used to isolate histones. Histone lysates were size separated on Bolt 10% Bis-Tris gradient gels (Life Technologies), transferred to polyvinylidene difluoride membranes, blocked in 5% BSA, and detected using standard western blotting techniques."}, "NB-4 cells": {"test_system": "NB-4 cells", "assay": "Cell viability assay (CellTiter-Glo)", "conditions": "read-out: IC50 cell viability NB-4; 72 hours", "method": "as §3\nCompounds and/or solvent dimethyl sulfoxide (DMSO) were added at the same time using an HP D300 digital dispenser (Hewlett Packard) in triplicate or quadruplicate and incubated for 72 hours at 37°C. Viability was measured by adding 25 μL CellTiter-Glo (Promega), incubating for 10 minutes, and measuring luminescence on a SpectraMax (Molecular Devices)."}, "[6]": {"test_system": "five human AML cell lines (MV-4-11, Kasumi-1, HL-60, MOLM-13, NB-4)", "assay": "Cell viability assay, summary over five human AML cell lines", "conditions": "72 hours", "method": "as §3, §4"}, "MV-4-11 and HL-60 cells [7]": {"test_system": "MV-4-11 and HL-60 cells", "assay": "Flow cytometry, surface level of CD11b (differentiation)", "type": "cell-based, human", "conditions": "single agent, 72 hours", "procedure": "as §2\nThe frequency of CD11b positive cells out of total viable cells identified by forward and side scatter profile was quantified."}},
  "note": "Like-named read-outs stand apart in the source and are kept apart here.",
  "data": [
    {"smiles": "Nc1ccc(-c2cccs2)cc1NC(=O)c1ccc2nc(N3CCNCC3)ccc2c1", "note": "[ACY-957]", "values": [
      {"measurement": "IC50", "setting": "HL-60 cells", "value": 2200, "unit": "nM"},
      {"measurement": "IC50", "setting": "[1]", "value": 1100, "unit": "nM"},
      {"measurement": "selectivity for HDAC1 over HDAC3", "setting": "HDAC1", "value": "more than 150 fold"},
      {"measurement": "IC50", "setting": "HDAC1; pre-incubated 24 hours at 4°C, n = 3, read-out: IC50 against HDAC1", "value": 7.2, "unit": "nM"},
      {"measurement": "IC50", "setting": "HDAC3", "value": 1160, "unit": "nM"},
      {"measurement": "selectivity for HDAC2 over HDAC3", "setting": "HDAC2", "value": "approximately 50 fold"},
      {"measurement": "IC50", "setting": "HDAC2; pre-incubated 24 hours at 4°C, n = 3, read-out: IC50 against HDAC2", "value": 26, "unit": "nM"},
      {"measurement": "IC50", "setting": "MV-4-11 cells", "value": 800, "unit": "nM"},
      {"measurement": "cells in S phase", "setting": "MV-4-11 and HL-60 cells [2]", "value": "dose-dependent reduction of cells in S phase"},
      {"measurement": "expression of CDKN1A, CDKN1C, GATA2 and HES1 (qPCR)", "setting": "MV-4-11 and HL-60 cells [3]", "value": "up-regulated"},
      {"measurement": "IC50", "setting": "Kasumi-1 cells", "value": 1600, "unit": "nM"},
      {"measurement": "apoptosis, staining for annexin V", "setting": "MV-4-11 and HL-60 cells [4]", "value": "increased staining for annexin V"},
      {"measurement": "IC50", "setting": "MOLM-13 cells", "value": 1600, "unit": "nM"},
      {"measurement": "acetylation on histone H2B lysine 5 (H2BK5ac) and histone H3 lysine 56 (H3K56ac)", "setting": "[5]", "value": "dose-dependent accumulation"},
      {"measurement": "IC50", "setting": "NB-4 cells", "value": 1600, "unit": "nM"},
      {"measurement": "IC50", "setting": "[6]; read-out: IC50 values cell viability, range, five human AML cell lines, both compounds", "value": "800 to 3300", "unit": "nM"},
      {"measurement": "IC50", "setting": "[6]; read-out: average IC50 value, viability of AML cells, average of five AML cell lines", "value": 1500, "unit": "nM"},
      {"measurement": "differentiation, surface expression of CD11b", "setting": "MV-4-11 and HL-60 cells [7]", "value": "dose-dependent induction of differentiation"}
    ]}
  ]
}
